This assay has as its system 4T1 (murine TNBC) cells. Nature of the assay: TNBC allograft model. The class given is in vivo, mice. As to conditions: 0.5 mg/kg i.p. daily, 18 days.

Each structure is given as a SMILES string.

Consider `N.N.[Cl][Pt][Cl]` [cisplatin], for which the “reduction of average tumor weight at sacrifice” value worked out at 25.2%.

Values taken from article PMC9069406 (Acta Pharmaceutica Sinica. B, 2021).
